The numbers were not newly measured in patent US8933112B2, “Topical liquid to ameliorate pain and promote healing of burn-injured skin” (Memphaceuticals, LLC, priority 2012, dated 2015), which cites them from elsewhere.

The test system of data set [1] is human T lymphocytes. The settings on record: by blocking Ca2+-sensitive K+ channels.
The target of data set [2] is T1, nitric-oxide synthase in bovine brain (Bos taurus, UniProt A0A3Q1M6M2).
T1 construct: nitric-oxide synthase in bovine brain; host or cells: bovine brain

In data set [3] the target is T2, 6-phosphofructo-1-kinase (PFK) (Oryctolagus cuniculus, UniProt P00511).
T2 sequence (P00511 2-780 limits assumed): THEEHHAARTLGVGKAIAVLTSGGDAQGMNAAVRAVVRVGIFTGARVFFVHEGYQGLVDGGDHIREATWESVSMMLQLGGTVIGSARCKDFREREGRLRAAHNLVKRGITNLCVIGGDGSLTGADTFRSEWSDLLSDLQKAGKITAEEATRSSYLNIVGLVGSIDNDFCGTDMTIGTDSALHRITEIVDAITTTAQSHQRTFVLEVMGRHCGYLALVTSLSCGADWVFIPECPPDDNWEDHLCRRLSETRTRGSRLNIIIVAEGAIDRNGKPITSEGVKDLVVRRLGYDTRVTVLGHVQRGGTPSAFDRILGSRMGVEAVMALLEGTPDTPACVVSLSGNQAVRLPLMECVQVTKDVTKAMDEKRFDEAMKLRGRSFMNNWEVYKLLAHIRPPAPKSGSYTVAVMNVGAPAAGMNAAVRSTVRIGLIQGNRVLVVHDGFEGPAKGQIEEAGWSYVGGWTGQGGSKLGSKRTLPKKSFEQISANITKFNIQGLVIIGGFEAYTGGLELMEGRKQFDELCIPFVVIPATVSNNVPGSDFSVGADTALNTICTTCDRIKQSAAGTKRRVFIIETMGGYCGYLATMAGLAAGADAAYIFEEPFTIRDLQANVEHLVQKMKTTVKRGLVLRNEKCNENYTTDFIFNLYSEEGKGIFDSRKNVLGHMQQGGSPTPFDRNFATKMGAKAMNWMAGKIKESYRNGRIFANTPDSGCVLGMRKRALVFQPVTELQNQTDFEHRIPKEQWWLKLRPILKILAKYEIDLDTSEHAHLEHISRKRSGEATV
Particulars: independent of anti-calmodulin activity.

Data set [4] deals with Lewis lung carcinoma cells and CT-26 colon adenocarcinoma cells.
Data set [5] deals with Ca^2+-dependent K^+ channels of human red blood cells, rat thymocytes, and Ehrlich ascites tumor cells. The settings on record: among tioconazole, miconazole, econazole, clotrimazole.

SMILES strings stand for the structures.

T1 sequence (A0A3Q1M6M2 1-1468): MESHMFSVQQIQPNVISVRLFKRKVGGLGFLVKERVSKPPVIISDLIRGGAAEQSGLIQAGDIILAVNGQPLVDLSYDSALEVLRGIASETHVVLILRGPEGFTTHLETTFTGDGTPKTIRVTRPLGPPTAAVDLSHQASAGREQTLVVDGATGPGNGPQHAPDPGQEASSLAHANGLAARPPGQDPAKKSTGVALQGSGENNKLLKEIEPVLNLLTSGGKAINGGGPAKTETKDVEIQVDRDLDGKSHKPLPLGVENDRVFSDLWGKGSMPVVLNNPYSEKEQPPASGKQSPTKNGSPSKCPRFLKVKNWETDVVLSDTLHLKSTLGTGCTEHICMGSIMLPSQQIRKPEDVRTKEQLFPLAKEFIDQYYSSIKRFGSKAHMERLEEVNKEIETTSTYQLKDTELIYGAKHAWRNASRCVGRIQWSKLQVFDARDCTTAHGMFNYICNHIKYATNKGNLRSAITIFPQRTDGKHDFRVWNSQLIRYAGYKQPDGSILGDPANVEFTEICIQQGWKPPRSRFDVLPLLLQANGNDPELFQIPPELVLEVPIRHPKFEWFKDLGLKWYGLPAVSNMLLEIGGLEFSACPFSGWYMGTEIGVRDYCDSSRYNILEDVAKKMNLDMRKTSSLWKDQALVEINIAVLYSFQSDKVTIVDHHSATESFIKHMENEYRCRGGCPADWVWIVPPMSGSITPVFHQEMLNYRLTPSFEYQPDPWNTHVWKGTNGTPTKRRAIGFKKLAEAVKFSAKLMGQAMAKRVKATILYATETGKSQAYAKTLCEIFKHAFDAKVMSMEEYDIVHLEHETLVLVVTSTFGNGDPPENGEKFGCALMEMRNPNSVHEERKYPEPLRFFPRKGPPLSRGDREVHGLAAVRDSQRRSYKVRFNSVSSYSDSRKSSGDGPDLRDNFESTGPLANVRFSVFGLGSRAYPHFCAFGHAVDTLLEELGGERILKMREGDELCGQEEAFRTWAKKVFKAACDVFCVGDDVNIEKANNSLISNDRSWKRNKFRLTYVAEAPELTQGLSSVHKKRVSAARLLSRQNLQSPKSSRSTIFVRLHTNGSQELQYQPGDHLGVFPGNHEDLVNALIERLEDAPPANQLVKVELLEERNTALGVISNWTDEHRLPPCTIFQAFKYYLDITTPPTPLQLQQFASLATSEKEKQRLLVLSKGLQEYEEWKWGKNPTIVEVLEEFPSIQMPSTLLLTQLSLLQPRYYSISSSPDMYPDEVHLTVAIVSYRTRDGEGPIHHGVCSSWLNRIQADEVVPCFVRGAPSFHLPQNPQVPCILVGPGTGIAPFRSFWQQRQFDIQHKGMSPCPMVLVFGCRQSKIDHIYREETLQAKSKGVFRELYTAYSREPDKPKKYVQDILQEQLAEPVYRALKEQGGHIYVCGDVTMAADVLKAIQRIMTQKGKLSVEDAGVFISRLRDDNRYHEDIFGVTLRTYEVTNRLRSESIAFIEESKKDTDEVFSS

`Clc1ccccc1C(c1ccccc1)(c1ccccc1)n1ccnc1` [clotrimazole, 1-(o-chloro-α,α-diphenylbenzyl)imidazole]: the “activation of human T lymphocytes” value in data set [1] was “inhibits activation”. The “citrulline formation by nitric-oxide synthase” value in data set [2] (bovine brain) is recorded as “inhibited citrulline formation”. Besides, the “cytochrome-c reductase activity of nitric-oxide synthase” value in data set [2] (calmodulin-dependent fashion) was “inhibited the cytochrome-c reductase activity”. In data set [3], the “inhibition of PFK” value was “directly inhibits”. The “levels of glucose 1,6-bisphosphate, fructose 1,6-bisphosphate, ATP, and cell viability” value in data set [4] is reported as “significant reduction”. Moreover, in data set [5], the “inhibition of Ca2+-dependent K+ channels” value was “most potent inhibitor”.
